Assay results from ChEMBL document CHEMBL2203079, “Virtual screening and QSAR study of some pyrrolidine derivatives as α-mannosidase inhibitors for binding feature analysis” (Bioorg Med Chem, 2012).
Activity calls are given as the source filed them. The rule behind the calls is not given here.

How the values were obtained:
Alpha-mannosidase 2 = target: T1, Alpha-mannosidase 2 (Homo sapiens, UniProt Q16706); experiment: Inhibition of human golgi alpha mannosidase 2
T1 sequence (Q16706 whole entry): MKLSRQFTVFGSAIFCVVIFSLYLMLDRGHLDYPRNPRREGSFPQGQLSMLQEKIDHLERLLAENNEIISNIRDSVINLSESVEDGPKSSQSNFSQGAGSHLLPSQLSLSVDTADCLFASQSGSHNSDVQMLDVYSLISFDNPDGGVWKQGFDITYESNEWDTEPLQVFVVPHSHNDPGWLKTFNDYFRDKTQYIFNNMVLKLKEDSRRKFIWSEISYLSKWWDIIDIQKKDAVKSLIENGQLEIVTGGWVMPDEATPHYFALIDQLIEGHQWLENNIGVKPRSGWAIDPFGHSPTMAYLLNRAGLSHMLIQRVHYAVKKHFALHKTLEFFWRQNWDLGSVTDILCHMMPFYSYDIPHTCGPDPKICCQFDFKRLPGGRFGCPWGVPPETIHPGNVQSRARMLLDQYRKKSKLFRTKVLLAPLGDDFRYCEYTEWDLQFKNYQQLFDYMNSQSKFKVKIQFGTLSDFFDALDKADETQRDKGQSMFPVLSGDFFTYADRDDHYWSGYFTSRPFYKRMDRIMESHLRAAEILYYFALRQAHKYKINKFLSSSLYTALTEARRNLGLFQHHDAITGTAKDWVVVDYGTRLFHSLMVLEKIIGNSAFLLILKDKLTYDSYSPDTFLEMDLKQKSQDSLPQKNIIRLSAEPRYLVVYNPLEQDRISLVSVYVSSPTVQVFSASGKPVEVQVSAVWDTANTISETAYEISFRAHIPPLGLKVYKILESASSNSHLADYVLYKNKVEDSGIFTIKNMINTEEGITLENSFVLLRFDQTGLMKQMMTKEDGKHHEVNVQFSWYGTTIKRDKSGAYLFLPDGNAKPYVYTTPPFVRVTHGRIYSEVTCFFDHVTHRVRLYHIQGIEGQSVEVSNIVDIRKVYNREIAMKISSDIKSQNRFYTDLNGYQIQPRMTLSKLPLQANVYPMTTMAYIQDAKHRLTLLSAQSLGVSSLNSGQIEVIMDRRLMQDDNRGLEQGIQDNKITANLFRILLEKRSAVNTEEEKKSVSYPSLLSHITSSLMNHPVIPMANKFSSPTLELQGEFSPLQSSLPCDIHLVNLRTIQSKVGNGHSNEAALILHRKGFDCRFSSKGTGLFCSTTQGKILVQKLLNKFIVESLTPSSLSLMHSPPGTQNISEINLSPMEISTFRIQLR

[1] = target: T2, Endoplasmic reticulum mannosyl-oligosaccharide 1,2-alpha-mannosidase (Homo sapiens, UniProt Q9UKM7); experiment: Inhibition of human ER alpha mannosidase 1
T2 sequence (Q9UKM7 whole entry): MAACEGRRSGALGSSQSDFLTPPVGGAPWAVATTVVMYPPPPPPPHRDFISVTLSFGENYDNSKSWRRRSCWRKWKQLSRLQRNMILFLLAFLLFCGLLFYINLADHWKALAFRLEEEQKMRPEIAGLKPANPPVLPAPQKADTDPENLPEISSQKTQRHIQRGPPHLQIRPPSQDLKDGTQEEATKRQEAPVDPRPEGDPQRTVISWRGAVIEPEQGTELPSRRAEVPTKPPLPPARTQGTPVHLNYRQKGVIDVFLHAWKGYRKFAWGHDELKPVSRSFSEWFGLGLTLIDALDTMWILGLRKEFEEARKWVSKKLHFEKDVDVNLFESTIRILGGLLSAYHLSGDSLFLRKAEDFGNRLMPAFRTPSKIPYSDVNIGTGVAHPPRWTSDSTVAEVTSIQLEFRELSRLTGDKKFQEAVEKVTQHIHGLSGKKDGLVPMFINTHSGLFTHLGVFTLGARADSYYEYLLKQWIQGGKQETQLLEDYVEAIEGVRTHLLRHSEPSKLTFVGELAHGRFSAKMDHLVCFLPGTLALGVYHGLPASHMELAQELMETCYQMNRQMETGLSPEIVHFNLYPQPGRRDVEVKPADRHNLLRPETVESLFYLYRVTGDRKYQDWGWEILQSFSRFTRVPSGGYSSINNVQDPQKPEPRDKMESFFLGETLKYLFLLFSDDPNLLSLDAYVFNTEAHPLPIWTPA

Canavalia ensiformis = experiment: Inhibition of jack bean alpha-mannosidase assessed as p-nitrophenylglycoside substrate hydrolysis at 1 mM
Prunus dulcis = experiment: Inhibition of almond alpha-mannosidase assessed as p-nitrophenylglycoside substrate hydrolysis at 1 mM

Structure (SMILES)	Ki (Alpha-mannosidase 2)	Ki [1]	inhibition (Canavalia ensiformis)	inhibition (Prunus dulcis)
CC(NC[C@H]1NC[C@H](O)[C@@H]1O)C(O)(c1ccccc1)c1ccccc1 (stereo partly specified)	80.8 µM	27.1 µM	inactive	inactive
CC(NC[C@H]1NC[C@H](O)[C@@H]1O)c1ccccc1 (stereo partly specified)	82.3 µM	28.1 µM	66%	48%
OC[C@@H](NC[C@H]1NC[C@H](O)[C@@H]1O)c1ccccc1	29.9 µM	12 µM	92%	55%
OC[C@H](NC[C@H]1N[C@H](CO)[C@H](O)[C@@H]1O)c1ccccc1	11.8 µM	24.6 µM	98%	96%
O[C@H]1[C@@H](O)CN[C@@H]1CNCc1cccs1	233 µM	77.7 µM	89%	68%
O[C@H]1[C@@H](O)CN[C@@H]1CNCC1CCN(Cc2ccccc2)CC1	43.2 µM	13.1 µM	55%	59%
O[C@H]1[C@@H](O)CN[C@@H]1CNCn1ccnc1	568 µM	326 µM	55%	59%
O[C@@H]1CNC[C@@H]1O	531 µM	3.24 µM	70%	40%
O[C@H]1[C@@H](O)CN[C@@H]1CN[C@@H](COCOc1ccc(F)cc1)c1ccccc1	6.47 µM	0.44 µM	92%	
OC[C@H]1NC[C@H](O)[C@@H]1O [IMINORIBITOL]	1430 µM	1.26 µM	54%	37%
COC[C@H](NC[C@H]1NC[C@H](O)[C@@H]1O)c1ccccc1	36 µM	12.1 µM	77%	63%
O[C@H]1[C@@H](O)CN[C@@H]1CN[C@H](c1ccccc1)[C@@H](O)c1ccccc1	7.77 µM	0.79 µM	88%	55%
O[C@H]1[C@@H](O)CN[C@@H]1CNC1CCCC1	333 µM	66.9 µM	60%	53%
OC(O)C[C@H]1NC[C@H](O)[C@@H]1O	438 µM	287 µM	81%	
O[C@H]1[C@@H](O)CN[C@@H]1CNCc1ccco1	292 µM	136 µM	49%	29%
OCC(O)[C@H]1NC[C@H](O)[C@@H]1O (stereo partly specified)	229 µM	169 µM	inactive	inactive
O[C@H]1[C@@H](O)CN[C@@H]1CNCc1ccccc1	152 µM	35 µM	92%	
C[C@H](O)NC[C@H]1NC[C@H](O)[C@@H]1O	683 µM	488 µM	66%	45%
NC[C@H]1NC[C@H](O)[C@@H]1O	1310 µM	1.59 µM	81%	51%
O[C@H]1[C@@H](O)CN[C@@H]1CCNc1ccccc1	123 µM	74.3 µM	33%	inactive
O[C@H]1[C@@H](O)CN[C@@H]1CN[C@@H](COCOc1ccc(Br)cc1)c1ccccc1	15.5 µM	0.31 µM	92%	
O[C@H]1[C@@H](O)CN[C@@H]1CN[C@@H](c1ccccc1)[C@H](O)c1ccccc1	25.9 µM	2.62 µM	84%	50%
O=C(NC[C@H](NC[C@H]1NC[C@H](O)[C@@H]1O)c1ccccc1)c1ccccc1Br	4.35 µM	0.16 µM	89%	
OC[C@H](NC[C@H]1NC[C@H](O)[C@@H]1O)c1ccccc1	26.9 µM	16.8 µM		93%
O[C@H]1[C@@H](O)CN[C@@H]1CN[C@@H](COCc1ccccc1)c1ccccc1	68.3 µM	0.23 µM	92%	75%
C[C@@H](O)NC[C@H]1NC[C@H](O)[C@@H]1O	450 µM	918 µM	75%	39%
O[C@H]1[C@@H](O)CN[C@@H]1CN[C@@H](COCOc1ccccc1F)c1ccccc1	11.3 µM	0.91 µM	83%	
O[C@H]1[C@@H](O)CN[C@@H]1CN[C@@H](COCc1cccc(F)c1)c1ccccc1	9.14 µM	0.76 µM	99%	
CC(=O)N(CNC[C@H]1NC[C@H](O)[C@@H]1O)Cc1ccccc1	64.9 µM	44.8 µM	inactive	inactive
O[C@H]1[C@@H](O)CN[C@@H]1CN[C@@H](COCOc1cccc(Br)c1)c1ccccc1	12.8 µM	0.31 µM	79%	
